# From patent publication US20070248705A1, “Agents for Activating the Transcription Factor Nrf2 and Foods Having Such Function” (KIRIN BEER KABUSHIKI KAISHA, priority 2004, published 2007)
# Key:
# [1] = test system: quinone reductase (QR) activity in mouse hepatoma Hepa1c1c7 cells; experiment: Induction of quinone reductase (QR) activity; type: cell-based; conditions: Hepa1c1c7 cells, 0.6, 1.7, 5, and 15 μM, 48 hours; listed as HI (F)
# Procedure: It has been known that quinone reductase (QR) activity is increased by increasing the expression of NAD(P)H:quinone oxidoreductase (NQO1) by Nrf2 activation (Proc Natl Acad Sci USA. 101, 10446-51 (2004)). Accordingly, isohumulones were allowed to act on mouse hepatoma Hepa1c1c7 cells (available from Dainippon Pharmaceutical Co., Ltd.) to examine whether the QR activity was induced.
# The QR activity was measured in accordance with the method described in Analytical Biochemistry 169, 328-336 (1988).
# A mouse hepatoma cell line Hepa1c1c7 was seeded on a 96-well plate (7-10×10^3 cells/well), 50 μl each of an α-MEM medium (Invitrogen) supplemented with 10% fetal bovine serum (HyClone) and penicillin-streptomycin (100 units/ml and 100 μg/ml, respectively; Sigma) was added, and the plate was incubated at […] in an atmosphere of 5% CO2 overnight. Next, the culture medium was replaced with a medium containing isomerized hop extract individually at a concentration of 1.9, 5.6, 16.7, or 50 μg/ml, or with a medium containing humulone (H), cohumulone (cH), adhumulone (aH), isohumulone (IH), isohumulone (IcH), or isohumulone (IaH) individually at a concentration of 0.6, 1.7, 5, and 15 μM and the plate was further incubated for 48 hours. Then, the cells in each well were broken using 0.08% digitonin and a 2 mM EDTA solution and absorption at 610 nm was measured by a menadione-formazan system using a microplate reader (Power Wave 200, Bio-Tek Instruments).
# The QR inducing activity was calculated as a relative activity setting the activity of cells without addition to be 1 (n=3, mean±standard variation). Sulforaphane (Sul, available from Sigma) was used as a positive control.
# catalase 1 (CAT1) = experiment: Expression of genes controlled by Nrf2 in RAW264.7: CAT1; type: cell-based, mouse; conditions: RAW264.7, 25 μM, 20 hours
# Procedure: (§1) A mouse macrophage cell line RAW264.7 was seeded on a φ60 mm dish (9×10^5 cells), 2 ml of a D-MEM medium (Invitrogen) supplemented with 10% fetal bovine serum (HyClone) and penicillin-streptomycin (100 units/ml and 100 μg/ml, respectively; Sigma) was added, and the dish was incubated at 37° C. in an atmosphere of 5% CO2 for 2 days. The medium was replaced with a fresh medium containing individual samples and incubation was continued for another 20 hours. Then, the total RNA was prepared using TRIzol (Invitrogen) and purified using a RNeasy Mini kit (Qiagen) and an RNase-free DNase set (Qiagen). Further, cDNA was synthesized from 5 μg of the purified total RNA using a Thermo Script RT-PCR system (Invitrogen), and the amount of mRNA expression of various genes was determined using a FastStart DNA Master SYBR Green I kit (Roche) and a Light Cycler (Roche).
# (§2) The amount of expression of the various genes was corrected by the amount of expression of the housekeeping gene PO and calculated as a relative expression level (n=2, mean±standard deviation). […]
# [2] = test system: glutathione S-transferase mu1 (GSTM1); experiment: Expression of genes controlled by Nrf2 in RAW264.7: GSTM1; type: cell-based, mouse; conditions: RAW264.7, 25 μM, 20 hours
# Procedure: as §1, §2
# [3] = test system: glutathione S-transferase pi2 (GSTP2); experiment: Expression of genes controlled by Nrf2 in RAW264.7: GSTP2; type: cell-based, mouse; conditions: RAW264.7, 25 μM, 20 hours
# Procedure: as §1, §2
# [4] = test system: glucose-6-phosphate dehydrogenase 2 (G6PD2); experiment: Expression of genes controlled by Nrf2 in RAW264.7: G6PD2; type: cell-based, mouse; conditions: RAW264.7, 25 μM, 20 hours
# Procedure: as §1, §2
# [5] = test system: glucose-6-phosphate dehydrogenase, X-linked (G6PDX); experiment: Expression of genes controlled by Nrf2 in RAW264.7: G6PDX; type: cell-based, mouse; conditions: RAW264.7, 25 μM, 20 hours
# Procedure: as §1, §2
# [6] = test system: mouse macrophage cell line RAW264.7; experiment: Amount of intracellular glutathione; type: cell-based; conditions: RAW264.7, 25 μM, 20 hours
# Procedure: A mouse macrophage cell line RAW264.7 was seeded on a φ60 mm dish (7×10^5 cells), 2 ml of a D-MEM medium (Invitrogen) supplemented with 10% fetal bovine serum (HyClone) and penicillin-streptomycin (100 units/ml and 100 μg/ml, respectively; Sigma) was added, and the dish was incubated at 37° C. in an atmosphere of 5% CO2 for 2 days. The medium was replaced with a fresh medium containing individual samples and incubation was continued for another 20 hours. The samples added were isohumulone (IH(F)) and isohumulone (IcH(G)) at a concentration of 25 μM. The cells were recovered, broken by ultrasonication, and centrifuged to obtain the supernatant, and the amount of the total intracellular glutathione was measured using a glutathione assay kit (Cayman Chemical) (n=2, mean±standard deviation). As a positive control, 15dPGJ2 (Cayman Chemical) was used.
smiles,measurement,setting,value
"CC(C)=CCC(=O)C1(O)C(O)=C(C(=O)CC(C)C)C(=O)C1CC=C(C)C (stereo not shown) [IH (F), isohumulone]",QR inducing activity,[1],activity was higher in isohumulones having a higher trans form content
same,expression of CAT1,catalase 1 (CAT1),augmented the expression
same,expression of GSTM1,[2],augmented the expression
same,expression of GSTP2,[3],augmented the expression
same,expression of G6PD2,[4],augmented the expression
same,expression of G6PDX,[5],augmented the expression
same,amount of the total intracellular glutathione,[6],Increased the amount of the total intracellular glutathione
